# Measurements from US7132447B2, “Substance FKI-1083 and process for producing the same” (The Kitasato Institute, priority 2001, dated 2006).
# Legend:
# [1] = tested on: Escherichia coli NIHJ JC-2 (IF012734); test: MIC by agar plate dilution method on nutrient agar medium; assay type: cell-based; details: NIHJJC2
# [2] = tested on: Pseudomonas aeruginosa IF03080; test: as above; assay type: cell-based
# [3] = target: NADH-fumarate reductase; test: NADH-fumarate reductase inhibitory activity, Ascaris suum muscle mitochondria fraction, NADH absorption at 340 nm; assay type: biochemical; details: 37° C., pH 7.0, read-out: concentration showing 50% inhibition of NADH-fumarate reductase activity
# Description: Ascaris suum muscle was homogenized in 120 mM sodium phosphate solution (pH 7.0) and centrifuged at 3000×g for 10 minutes to collect the supernatant solution. The solution was further centrifuged at 10000×g for 20 minutes to collect the precipitate. The precipitate was suspended in 120 mM sodium phosphate solution (pH 7.0) to prepare mitochondria fraction. 50% dimethyl sulfoxide solution of FKI-1083 substance 10 μl was added to 96 well microplate. 120 mM sodium phosphate solution (pH 7.0) 80 μl containing 0.35 mM NADH and 7.2 mM disodium fumarate was added thereto and preincubated at 37° C. for 5 minutes in the microplate reader ELX808 (Bio-Tek Industries Inc., the U.S.). Mitochondria fraction of Ascaris suum muscle 10 μl (0.3 mg protein) was added thereto, incubated at 37° C. for 10 minutes and measured absorption of NADH at 340 nm in every 15 seconds. A gradient of the decrease in absorption at 340 nm was assayed as NADH-fumarate reductase activity. […] Consequently, FKI-1083 substance can be expected as a composition for treatment or prevention of helminthiasis.
# [4] = tested on: Xanthomonas campestris pv. oryzae KB88; test: microbe, parasite or virus in culture; assay type: cell-based
# [5] = tested on: Micrococcus luteus ATCC9341; test: MIC by agar plate dilution method on nutrient agar medium; assay type: cell-based
# [6] = tested on: Mucor racemosus IF04581; test: as above; assay type: cell-based
# [7] = tested on: Mycobacterium smegmatis ATCC607; test: as above; assay type: cell-based; details: Mycolicibacterium smegmatis
# [8] = tested on: Candida albicans KF1; test: as above; assay type: cell-based
# [9] = tested on: Saccharomyces cerevisiae KF26; test: as above; assay type: cell-based
# From the text: Minimum inhibitory concentration (MIC) of FKI-1083 substance of the present invention against various microorganisms on nutrient agar medium by agar plate dilution method is shown in Table 3.
# [10] = tested on: Escherichia coli NIHJ; test: as above; assay type: cell-based
# [11] = tested on: Caenorhabditis elegans; test: Nematocidal activity, movement observed under microscope in 96 well plate; assay type: in vivo
# Description: (§1) Methanol solution of FKI-1083 substance of the present invention was added to a 96 well plate (Corning Inc., the U.S.). […] A test medium (lecithin 0.01%, sodium hydrogen carbonate 7.5 mM, potassium chloride 7.5 mM, calcium chloride dihydrate 7.5 mM, and magnesium sulfate heptahydrate 7.5 mM) 250 μl was added thereto and shaken for 15 minutes. Approximately 10 Caenorhabditis elegans cultured on the agar medium for nematode growth [a medium in which E. coli was cultured on a medium consisting of bactoagar (DIFCO Inc., the U.S.) 1.7%, bactopeptone (DIFCO Inc., the U.S.) 0.5%, yeast extract (DIFCO Inc., the U.S.) 1.0%, sodium chloride 0.3%, cholesterol 0.0005%, calcium chloride 0.007%, magnesium sulfate 0.03%, dipotassium hydrogen phosphate 0.34%, and potassium dihydrogen phosphate 0.11%] were added thereto. Separately, a buffer solution 50 μl containing several numbers of nauplius larvae of Artemia salina hatched in the buffer (Tris 0.24%, sodium chloride 2.57%, magnesium chloride 0.47%, potassium chloride 0.07%, sodium carbonate 0.02%, magnesium sulfate 0.64% and calcium chloride 0.11%, pH 7.1) was added. Conditions of these nematode and arthropod were observed under microscope. […] Consequently, FKI-1083 substance of the present invention is useful as anthelmintic and insecticide.
# [12] = tested on: Aspergillus niger ATCC6275; test: MIC by agar plate dilution method on nutrient agar medium; assay type: cell-based
# [13] = tested on: Staphylococcus aureus ATCC6538p; test: as above; assay type: cell-based
# [14] = tested on: Bacillus subtilis ATCC6633; test: as above; assay type: cell-based
# [15] = tested on: Artemia salina; test: Anthropodicidal activity, movement of nauplius larvae observed under microscope in 96 well plate; assay type: in vivo
# Description: as §1
smiles,measurement,setting,value
CCCCCCCC/C(C)=C/Cc1oc(OC)c(C)c(=O)c1C [FKI-1083 substance],MIC,[1],> 100 µg/mL
same,MIC,[2],> 100 µg/mL
same,IC50,[3],4.1 nM
same,MIC,[4],> 100 µg/mL
same,MIC,[5],6.25 µg/mL
same,MIC,[6],> 100 µg/mL
same,MIC,[7],12.5 µg/mL
same,MIC,[8],> 100 µg/mL
same,MIC,[9],> 100 µg/mL
same,MIC,[10],> 100 µg/mL
same,concentration at which movement was inhibited,[11],20 µg/mL
same,MIC,[12],> 100 µg/mL
same,MIC,[13],6.25 µg/mL
same,MIC,[14],6.25 µg/mL
same,concentration at which movement was inhibited,[15],2 µg/mL
